In article PMC13286198 (PLOS One, 2026):

Assay: Pharmacokinetic interaction study in rats, plasma by UPLC-MS/MS
Type: in vivo, Sprague–Dawley rats
Conditions: oral, n = 6
Procedure: The sample size for each group of rats was calculated using the resource equation method [27]. The doses were chosen by converting the clinically recommended doses for patients to animal doses. […] The value of Km represents the equivalent dose ratio between humans and rats, calculated based on body surface area. […] The following groups received control solvents corresponding to each drug for a duration of seven consecutive days. […] Conversely, remaining groups were treated with their respective drugs at the aforementioned doses for seven consecutive days. […] Blood samples were centrifuged at 3,500 rpm for 10 min, and the supernatant was collected and stored at -80°C until processing for UPLC-MS/MS. The induction of anesthesia was performed using 5% isoflurane, and the concentration was maintained at 2% throughout the blood collection process. The blood was extracted from the eye venous plexus by well-trained professionals to minimize the animal's suffering. Following blood collection, rat liver, intestinal and kidney tissues were collected for molecular analysis on the seventh day post-treatment with the corresponding drugs for each group. Before euthanizing the animals, they were required to fast for at least 12 hours. Using sodium pentobarbital (2 g/kg) to put the animals into a deep state of anesthesia, Collect the required tissue samples and the rats were euthanized by cervical dislocation. […] The temperature maintained at 40 by gradient elution. […] Aliquots (8 μL) of these redissolved samples were used into the UPLC-MS/MS system for subsequent analysis. […] Analysis was conducted in a non-compartmental model. The metrics such as the area under the concentration-time curve (AUC), maximum plasma concentration (Cmax), time to reach Cmax (Tmax), elimination half-life (t1/2), plasma clearance volume per time unit (CLz/F), apparent volume of distribution (Vz), and mean residence time (MRT) were expressed as mean ± standard deviation (SD). Comparisons corresponding test groups were conducted using SPSS 25.0 software (SPSS Inc., Chicago, IL, USA).

Cmax (henagliflozin 1 mg/kg after telmisartan 8 mg/kg for 7 days) [ng/mL]	Vz (henagliflozin 1 mg/kg alone) [L/kg]	Cmax ((control of the henagliflozin study)) [ng/mL]	SMILES
356.83 ± 59.55	3.87 ± 1.49		CCOc1ccc(Cc2cc([C@@]34OC[C@@](CO)(O3)[C@@H](O)[C@H](O)[C@H]4O)ccc2Cl)cc1F [henagliflozin]
		160.33 ± 24.57	CCCc1nc2c(C)cc(-c3nc4ccccc4n3C)cc2n1Cc1ccc(-c2ccccc2C(=O)O)cc1 [telmisartan]
